Values quoted from earlier work, collected in PMC5796656 (Journal of the American Chemical Society, 2015).

Conditions: ref [26]

O=C([O-])CN1CCN(CC(=O)[O-])CCN(CC(=O)[O-])CCN(CC(=O)[O-])CC1.[Gd+3] [GdDOTA]
τM: 243 ns
